Key:
[1] = tested on: locally advanced or metastatic pancreatic cancer; experiment: TH-CR-404 Phase II clinical trial in pancreatic cancer (NCT01144455); assay type: in vivo, human
Experimental: In the TH-CR-404 Phase II clinical trial in pancreatic cancer (NCT01144455), pancreatic cancer patients with locally advanced or metastatic disease were randomized in three study arms to receive Gemcitabine (Gem) therapy or the combination of Gemcitabine with one of 2 dose levels of TH-302. TH-302 was administered either at 240 or 340 mg/m^2 by intravenous infusion. A total of 214 patients were enrolled (Gemcitabine arm, n=69; Gemcitabine+TH-302 240 mg/m^2, n=71; Gemcitabine+TH-302 340 mg/m^2, n=74).
To search for potentially predictive serum biomarkers of the clinical benefit derived from TH-302 hypoxia-activated therapy, an initial search of candidate biomarkers was conducted from the trial pre-treatment serum samples using a multiplexed bead-based immunoassay (AssayGate, Inc., Ijamsville, Md.). When measuring serum samples for ENO1 and ENO2 protein levels by means of this bead-based, suspension immunoassay format for ENO1, the limit of detection of the assay was 1.8 ng/ml. For ENO2, the assay sensitivity was 1.2 ng/ml.
Following the identification of ENO2 as a potentially predictive biomarker for the clinical benefit derived from TH-302, the levels of ENO1 were tested in the same patient serum samples (Harris A L, 2002, Nat Rev Cancer 2: 38-47; Semenza G L, 2003, Nat Rev Cancer 3: 721-732). High levels of ENO1 were associated with improved PFS and OS in Gemcitabine+TH-302 340 mg/m^2 patient samples in this trial (FIG. 2). These associations were shown using the ENO1 cut-off value of the assay sensitivity limit (1.8 ng/ml) (FIGS. 2A and 2B).

[2] = tested on: panel of 11 cancer cell-line derived models; settings: tumor xenografts, variety of tumor types; cited from earlier work
[3] = tested on: locally advanced or metastatic pancreatic cancer; settings: cited from earlier work

For `Cn1c(COP(=O)(NCCBr)NCCBr)cnc1[N+](=O)[O-]` [TH-302, (2-bromoethyl)({[(2-bromoethyl)amino][(2-nitro-3-methylimidazol-4-yl)methoxy]phosphoryl})amine], the “difference between treatment groups of median PFS time among patients with high ENO2” value ([1]; Gem vs Gem+TH-302 340 mg/m^2, ENO2 median cut-off 20.3913 ng/ml, FIG. 1A) was “more pronounced”, the “difference between treatment groups of median OS time among patients with high ENO2” value ([1]; Gem vs Gem+TH-302 340 mg/m^2, ENO2 median cut-off 20.3913 ng/ml, FIG. 1B) was “more pronounced” and the “OS in patients with high serum ENO1 levels” value ([1]; Gemcitabine+TH-302 340 mg/m^2, ENO1 cut-off 1.8 ng/ml (more pronounced at 2.3 and 3.2 ng/ml), FIG. 2B-2D) was “improved”. For the same compound, the “PFS in patients with high serum ENO1 levels” value ([1]; Gemcitabine+TH-302 340 mg/m^2, ENO1 cut-off 1.8 ng/ml, FIG. 2A) was “improved”, the “monotherapy efficacy (tumor growth delay)” value [2] was “modest” and the “progression free survival (PFS) hazard ratio (HR)” value ([3]; Gemcitabine+TH-302 340 mg/m^2 (high-dose group) vs Gemcitabine alone, intravenous infusion, p=0.008) was 0.58. The “primary endpoint: progression free survival (PFS)” value ([3]; Gemcitabine+TH-302 groups (240 or 340 mg/m^2) compared to Gemcitabine alone) was “improved progression free survival”.

— US10760130B2, “Predictive biomarker for hypoxia-activated prodrug therapy” (MOLECULAR TEMPLATES, INC., priority 2014, dated 2020)
